Assay results published in patent US10435388B2, “Selective inhibitors of clinically important mutants of the EGFR tyrosine kinase” (CS PHARMATECH LIMITED, priority 2016, dated 2019).
Structures can show the parent of a compound that is named as a salt.

Columns and labels:
[1] = biological target: EGFR_T790M/L858R (Homo sapiens, UniProt P00533, L858R/T790M); assay: Enzyme assay, IC50 for double-mutant EGFR (EGFR_T790M/L858R) (Caliper); type: biochemical; settings: enzyme phosphorylation assay; read-out: EGFR_L858R/T790 IC50
Description: (§1) Using the same technique as described in the previous paragraph, various mutated forms of the epidermal growth factor receptor may be isolated from appropriate cell lines which contain them. For example, the EGFR de1746-750 mutant protein may be extracted from PC-9 cells, and the L858R/T790M double mutant EGFR protein may be isolated from H1975 cells.
Determination of IC50 Values for Double-Mutant EGFR (EGFR_T790M/L858R)
Dilute all compounds to 500 μM stock solutions in 100% DMSO and make a serial of 4-fold dilution for 10 does. “Max” and “Min” control contain 100% DMSO. “Max” stands for […], “Min” stands for low control without compounds. Transfer 10 μl of compounds to 90 μl of 1× kinase base buffer to make intermediate dilution. […] Incubate at RT for 1 hr and 25 μl stop buffer to end up reaction. Collect conversion data from Caliper and conversion data from Caliper program. Fit the data in XLfit to obtain IC50 values.

[2] = biological target: EGFR_d746-750 (Homo sapiens, UniProt P00533, DEL746-750); assay: Enzyme assay, IC50 for single mutant EGFR_d746-750 (Caliper); type: biochemical; settings: enzyme phosphorylation assay
Description: as §1
Determination of IC50 Values for Single Mutant EGFR_d746-750
Dilute all compounds to 500 μM stock solutions in 100% DMSO and make a serial of 4-fold dilution for 10 doses. “Max” and “Min” control contain 100% DMSO. “Max” stands for […], “Min” stands for low control without compounds. Transfer 10 μl of compounds to 90 μl of 1× kinase base buffer to make intermediate dilution. […] Incubate at RT for 1 hr and 25 μl stop buffer to end up reaction. Collect conversion data from Caliper and conversion data from Caliper program. Fit the data in XLfit to obtain IC50 values.

[3] = biological target: T1, Wt EGFR (Homo sapiens, UniProt P00533); assay: Enzyme assay, IC50 for wt EGFR (Caliper); type: biochemical; settings: enzyme phosphorylation assay; read-out: EGFR_WT IC50
T1 construct: isolated from A431 human epidermoid carcinoma cells which overexpress EGF receptor; endogenous in cells; host or cells: A431 human epidermoid carcinoma cells (receptor purified on wheat germ agglutinin sepharose)
Description: Purification of Epidermal Growth Factor Receptor Tyrosine Kinase Human EGF receptor tyrosine kinase was isolated from A431 human epidermoid carcinoma cells which overexpress EGF receptor by the following methods. Cells were grown in roller bottles in 50% Delbuco's Modified Eagle and 50% HAM F-12 nutrient media (Gibco) containing 10% fetal calf serum. Approximately 10^9 cells were lysed in two volumes of buffer containing 20 mM 2-(4N-[2-hydroxyethyl]piperazin-1-yl)ethanesulfonic acid (hepes), pH 7.4, 5 mM ethylene glycol bis(2-aminoethyl ether) N,N,N′,N′-tetraacetic acid, 1% Triton X-1OO, 10% glycerol. 0.1 mM sodium orthovanadate, 5 mM sodium fluoride, 4 mM pyrophosphate, 4 mM benzamide, 1 mM dithiothreitol, 80 μg/mL aprotinin, 40 μg/mL leupeptin and 1 mM phenylmethylsulfonyl fluoride. After centrifugation at 25,000×g for 10 minutes, the supernatant was equilibrated for 2 h at […], with 10 mL of wheat germ agglutinin sepharose that was previously equilibrated with 50 mM Hepes, 10% glycerol, 0.1% Triton X-100 and 150 mM NaCl, pH 7.5, (equilibration buffer). Contaminating proteins were washed from the resin with 1M NaCl in equilibration buffer, and the enzyme was eluted with 0.5M N-acetyl-1-D-glucosamine in equilibration buffer, followed by 1 mM urea. The enzyme was eluted with 0.1 mg/ml EGF.
Determination of IC50 Values for Wt EGFR
Dilute all compounds to 500 μM stock solutions in 100% DMSO and make a serial of 4-fold dilution for 10 does. “Max” and “Min” control contain 100% DMSO. “Max” stands for […], “Min” stands for low control without compounds. Transfer 10 μl of compounds to 90 μl of Ix kinase base buffer to make intermediate dilution. Transfer 5 μl of intermediate dilution compounds to the 384-well assay plate, then 10 μl 2.5× enzyme buffer containing (20 nM EGFR, 5 mM DTT, 1× kinase base buffer) were added to assay plate. […] Incubate at RT for 1 hr and 25 μl stop buffer to end up reaction. Collect conversion data from Caliper and conversion data from Caliper program. Fit the data in XLfit to obtain IC50 values.

[4] = biological target: T2, IGF-1R (Homo sapiens, UniProt P08069); assay: IGF-1R inhibition assay (Caliper EZ Reader); type: biochemical; settings: enzyme assay
T2 construct: purchased CARNA BIOSCIENCE 08-141
Description: (§2) Test compound was dissolved in DMSO at 30 mM. […] 20 nL of these compounds DMSO dilutes were dispensed into a new 384-well assay plate by Echo 550. […] 15 uL of kinase assay buffer containing IGF-1R protein and substrate was transferred to assay plate and incubate at RT for 30 minutes. Kinase assay buffer supplemented with substrate peptides was employed as low control to monitor the background. 40 μM ATP was prepared in kinase assay buffer containing and 5 μL of ATP solution was added to each well to start the reaction. The assay plate was incubated at 25° C. for 180 minutes and the reaction was stopped by adding 40 μL of 0.5 M EDTA.
Phosphorylated fluorescent-tagged peptides were differentiated from non-phosphorylated peptides by separating using Caliper EZ Reader II and the detection was directly converted to conversion ratio.

[5] = biological target: T3, INSR (Homo sapiens, UniProt P06213); assay: INSR inhibition assay (Caliper EZ Reader); type: biochemical; settings: enzyme assay
T3 construct: purchased CARNA BIOSCIENCE 08-142
Description: as §2, with “INSR” for “IGF-1R”, “LM” for “μM”
The result is analyzed in the same manner of […].

[6] = tested on: PC9 cells (SM); assay: PC-9 growth inhibition assay (cell proliferation), Method B; type: cell-based, human; settings: cellular proliferation, several runs
Description: (§3) Cell Proliferation Assays—Method B
(§4) Test compounds were dissolved in DMSO at 30 mM.
(§5) The final concentration was 1,000 cells/well. Add medium only as low control. […] 5% CO2 incubator for 72 hours.
(§6) After 72 hours incubation, remove the plates from incubator and equilibrate at room temperature for 15 minutes. Incubate the CellTiter Glo reagents (Promega, G9243) at 37° C. before the experiment. The buffer was equilibrated to room temperature and used to dissolve the substrate. To determine the cell viability, add 40 μL of CellTiter-Glo reagent into each well to be detected (at 1:1 to culture medium). Then the place the plates at room temperature for 30 min followed by read on EnSpire (PerkinElmer).
(§7) For estimation of IC50, the luminescence readout are transformed to % Inhibition by applying the following equation: The IC50 was then
(§8) [formula] calculated by fitting in XLFit to a four parameters logistic curve.
PC-9 Growth Inhibition Assay (Cell Proliferation).
The inhibition assay of PC-9 cells was conducted in the same manner as described above for H1975 cells.

[7] = tested on: H1975 cells (DM); assay: H1975 inhibition assay (cell proliferation), Method B; type: cell-based; settings: cellular proliferation, several runs
Description: as §3
H1975 Inhibition Assay (Cell Proliferation).
as §4, §5, §6, §7, §8

[8] = tested on: A431 cells (WT); assay: A431 inhibition assay (cell proliferation), Method B; type: cell-based, human; settings: Homo sapiens, A-431, 72 h, cellular proliferation, several runs
Description: as §3
A431 Inhibition Assay, (Cell Proliferation).
The rest procedure was conducted in the same manner as described above for H1975 cells.

[9] = tested on: NCI-H1975 cells (EGFR L858R/T790 double mutant); assay: H1975 inhibition assay (cell proliferation), Method A; type: cell-based; settings: Homo sapiens, NCI-H1975; cellular proliferation, *tested by method A (Table 2); read-out: DM (H1975) IC50
Description: (§9) Cell Proliferation Assays—Method A
H1975 Inhibition Assay (Cell Proliferation)
(§10) The final concentration was 4,000 cells/well. Add medium only as low control.
(§11) Day-2: Test compounds were dissolved in DMSO at 0.2 mM (200×).
(§12) Day-5: After 72 hours incubation, remove the plates from incubator and equilibrate at room temperature for 15 minutes. Incubate the CellTiter Glo reagents (Promega, G9243) at 37° C. before the experiment. The buffer was equilibrated to room temperature and used to dissolve the substrate. To determine the cell viability, add 30 μL of CellTiter-Glo reagent into each well to be detected. Then shake the plates at room temperature for 10 min and followed by plate read on Envision (PerkinElmer).
as §7, §8

[10] = tested on: PC9 cells (EGFR d746-750 single mutant); assay: PC-9 growth inhibition assay (cell proliferation), Method A; type: cell-based, human; settings: Homo sapiens, PC-9; cellular proliferation, *tested by method A (Table 2); read-out: SM (PC9) IC50
Description: as §9, §10, §11, §12, §7, §8
PC-9 Growth Inhibition Assay (Cell Proliferation)
The inhibition assay for PC-9 cells was processed in the same manner as described for the H1975 cells.

T2 sequence (P08069 959-1367 limits assumed): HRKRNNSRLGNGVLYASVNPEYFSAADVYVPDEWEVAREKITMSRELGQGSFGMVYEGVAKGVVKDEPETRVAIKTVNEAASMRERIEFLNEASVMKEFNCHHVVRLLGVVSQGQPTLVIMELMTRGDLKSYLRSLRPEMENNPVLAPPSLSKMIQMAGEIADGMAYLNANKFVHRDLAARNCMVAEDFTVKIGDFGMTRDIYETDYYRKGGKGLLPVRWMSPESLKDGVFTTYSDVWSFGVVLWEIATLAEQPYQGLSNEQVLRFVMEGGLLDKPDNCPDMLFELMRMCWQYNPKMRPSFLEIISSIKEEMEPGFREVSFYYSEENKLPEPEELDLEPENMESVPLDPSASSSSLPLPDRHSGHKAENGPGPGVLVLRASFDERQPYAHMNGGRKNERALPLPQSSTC
T3 sequence (P06213 989-1382 limits assumed): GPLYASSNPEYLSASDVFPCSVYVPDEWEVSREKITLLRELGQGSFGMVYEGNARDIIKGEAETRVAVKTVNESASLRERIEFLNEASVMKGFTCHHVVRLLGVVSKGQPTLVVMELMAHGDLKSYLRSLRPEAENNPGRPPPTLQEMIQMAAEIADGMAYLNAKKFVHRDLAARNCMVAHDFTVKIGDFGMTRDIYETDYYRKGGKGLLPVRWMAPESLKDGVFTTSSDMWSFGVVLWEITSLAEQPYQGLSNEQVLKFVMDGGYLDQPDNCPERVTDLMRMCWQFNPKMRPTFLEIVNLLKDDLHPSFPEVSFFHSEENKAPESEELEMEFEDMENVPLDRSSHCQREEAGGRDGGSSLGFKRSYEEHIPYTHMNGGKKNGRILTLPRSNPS
T1 sequence (P00533 25-1210): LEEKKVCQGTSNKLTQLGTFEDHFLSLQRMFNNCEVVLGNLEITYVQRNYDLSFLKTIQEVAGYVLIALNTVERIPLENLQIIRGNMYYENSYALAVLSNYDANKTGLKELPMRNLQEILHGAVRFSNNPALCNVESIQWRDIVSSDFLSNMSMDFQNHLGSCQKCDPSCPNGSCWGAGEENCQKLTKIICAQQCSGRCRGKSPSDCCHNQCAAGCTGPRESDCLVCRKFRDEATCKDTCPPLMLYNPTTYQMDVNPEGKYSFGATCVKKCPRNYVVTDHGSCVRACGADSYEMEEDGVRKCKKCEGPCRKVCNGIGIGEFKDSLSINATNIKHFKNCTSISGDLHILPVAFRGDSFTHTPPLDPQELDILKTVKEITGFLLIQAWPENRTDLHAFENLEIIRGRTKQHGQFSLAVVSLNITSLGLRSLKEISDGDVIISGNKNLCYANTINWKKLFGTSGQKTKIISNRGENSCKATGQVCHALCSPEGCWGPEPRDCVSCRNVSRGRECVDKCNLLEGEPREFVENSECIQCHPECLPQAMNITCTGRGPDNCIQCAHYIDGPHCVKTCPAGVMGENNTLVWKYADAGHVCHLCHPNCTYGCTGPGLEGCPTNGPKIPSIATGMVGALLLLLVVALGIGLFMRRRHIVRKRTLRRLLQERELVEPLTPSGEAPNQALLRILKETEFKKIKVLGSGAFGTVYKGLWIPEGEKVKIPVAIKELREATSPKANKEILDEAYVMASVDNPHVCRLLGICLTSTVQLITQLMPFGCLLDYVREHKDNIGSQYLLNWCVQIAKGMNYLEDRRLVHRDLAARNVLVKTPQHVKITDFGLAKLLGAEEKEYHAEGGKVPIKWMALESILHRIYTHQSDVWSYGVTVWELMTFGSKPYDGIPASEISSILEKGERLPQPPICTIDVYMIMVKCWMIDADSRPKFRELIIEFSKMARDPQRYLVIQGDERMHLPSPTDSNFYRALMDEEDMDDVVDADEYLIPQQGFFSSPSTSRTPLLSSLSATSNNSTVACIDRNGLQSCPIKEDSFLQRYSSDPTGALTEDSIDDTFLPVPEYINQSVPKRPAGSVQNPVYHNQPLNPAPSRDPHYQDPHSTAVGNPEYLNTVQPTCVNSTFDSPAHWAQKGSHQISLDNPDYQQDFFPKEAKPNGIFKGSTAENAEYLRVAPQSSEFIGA
Chain of EGFR_d746-750 (P00533 with tags, fused parts or gaps DEL746-750): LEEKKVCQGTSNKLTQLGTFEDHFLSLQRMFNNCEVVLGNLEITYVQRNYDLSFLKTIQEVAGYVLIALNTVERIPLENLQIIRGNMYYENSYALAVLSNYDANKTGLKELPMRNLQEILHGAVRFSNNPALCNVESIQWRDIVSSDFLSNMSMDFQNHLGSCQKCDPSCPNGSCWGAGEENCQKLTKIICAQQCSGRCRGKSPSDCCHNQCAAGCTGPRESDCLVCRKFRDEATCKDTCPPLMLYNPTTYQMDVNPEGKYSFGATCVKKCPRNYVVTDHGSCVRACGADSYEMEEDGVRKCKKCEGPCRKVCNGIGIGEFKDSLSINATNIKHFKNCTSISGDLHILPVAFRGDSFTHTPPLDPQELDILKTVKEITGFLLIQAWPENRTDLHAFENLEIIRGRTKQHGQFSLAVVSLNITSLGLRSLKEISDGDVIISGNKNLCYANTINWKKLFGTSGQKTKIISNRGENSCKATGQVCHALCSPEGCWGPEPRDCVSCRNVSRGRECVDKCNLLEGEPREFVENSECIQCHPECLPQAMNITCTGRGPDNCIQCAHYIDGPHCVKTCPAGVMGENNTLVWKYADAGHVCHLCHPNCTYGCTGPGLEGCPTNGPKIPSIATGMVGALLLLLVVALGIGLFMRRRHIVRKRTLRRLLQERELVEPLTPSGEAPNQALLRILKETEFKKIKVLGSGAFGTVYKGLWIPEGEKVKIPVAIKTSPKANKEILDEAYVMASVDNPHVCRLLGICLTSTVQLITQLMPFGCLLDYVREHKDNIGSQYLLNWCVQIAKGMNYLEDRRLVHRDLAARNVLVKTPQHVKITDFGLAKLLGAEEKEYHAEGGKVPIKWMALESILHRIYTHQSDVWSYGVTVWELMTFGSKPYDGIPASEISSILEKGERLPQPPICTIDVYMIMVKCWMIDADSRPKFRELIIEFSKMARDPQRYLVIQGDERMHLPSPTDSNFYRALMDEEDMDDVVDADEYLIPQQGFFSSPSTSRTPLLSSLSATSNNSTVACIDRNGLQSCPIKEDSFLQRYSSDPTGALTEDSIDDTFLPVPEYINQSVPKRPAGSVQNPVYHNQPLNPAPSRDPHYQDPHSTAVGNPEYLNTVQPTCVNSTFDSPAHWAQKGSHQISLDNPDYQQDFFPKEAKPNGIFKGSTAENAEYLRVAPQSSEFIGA
Chain of EGFR_T790M/L858R (P00533 25-1210 T790M/L858R): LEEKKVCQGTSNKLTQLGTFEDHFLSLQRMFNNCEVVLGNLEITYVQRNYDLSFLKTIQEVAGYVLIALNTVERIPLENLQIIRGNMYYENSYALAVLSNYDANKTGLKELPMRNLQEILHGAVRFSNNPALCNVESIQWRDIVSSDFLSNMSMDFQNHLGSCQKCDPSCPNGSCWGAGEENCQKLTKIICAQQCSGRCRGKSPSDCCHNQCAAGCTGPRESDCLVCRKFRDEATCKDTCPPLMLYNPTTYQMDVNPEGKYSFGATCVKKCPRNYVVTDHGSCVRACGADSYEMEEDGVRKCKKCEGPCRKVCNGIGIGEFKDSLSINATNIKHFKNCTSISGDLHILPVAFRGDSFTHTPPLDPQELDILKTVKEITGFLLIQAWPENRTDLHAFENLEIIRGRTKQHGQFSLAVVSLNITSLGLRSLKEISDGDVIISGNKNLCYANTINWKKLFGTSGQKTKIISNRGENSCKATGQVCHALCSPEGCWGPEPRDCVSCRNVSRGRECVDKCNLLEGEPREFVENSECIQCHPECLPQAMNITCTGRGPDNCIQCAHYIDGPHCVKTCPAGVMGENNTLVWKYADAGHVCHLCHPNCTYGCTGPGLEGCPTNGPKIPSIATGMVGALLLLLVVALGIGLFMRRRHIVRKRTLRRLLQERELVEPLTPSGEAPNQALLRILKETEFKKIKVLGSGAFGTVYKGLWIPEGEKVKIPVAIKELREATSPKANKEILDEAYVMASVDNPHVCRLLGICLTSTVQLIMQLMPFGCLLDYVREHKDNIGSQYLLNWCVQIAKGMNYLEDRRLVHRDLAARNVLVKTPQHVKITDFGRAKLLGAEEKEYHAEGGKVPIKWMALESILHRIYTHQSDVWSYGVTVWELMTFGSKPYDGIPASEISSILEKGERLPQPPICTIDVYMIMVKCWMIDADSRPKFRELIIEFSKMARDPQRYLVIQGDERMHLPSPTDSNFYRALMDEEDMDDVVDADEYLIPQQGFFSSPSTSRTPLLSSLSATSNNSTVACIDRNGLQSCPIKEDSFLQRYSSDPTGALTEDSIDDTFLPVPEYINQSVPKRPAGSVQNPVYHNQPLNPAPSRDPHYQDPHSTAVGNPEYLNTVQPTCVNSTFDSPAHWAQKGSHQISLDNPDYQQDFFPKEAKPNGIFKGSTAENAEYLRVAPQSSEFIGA

Row | SMILES | IC50 [4] [nM] | IC50 [5] [nM] | IC50 ([6]; Homo sapiens, PC-9, 72 h) [nM] | IC50 ([7]; Homo sapiens, NCI-H1975, 72 h) [nM] | IC50 [8] [nM] | other results
1 | C=CC(=O)Nc1cc(Nc2nccc(-c3cn(C)c4cccc(C)c34)n2)c(OC)cc1N(C)CCN(C)C [Example 5, N-(2-(N-(2-(N,N-Dimethylamino)ethyl)-N-methylamino)-4-methoxy-5-(4-(1 N,4-dimethylindol-3-yl)pyrimidin-2-ylamino)phenyl)propenamide] |  |  |  |  |  | IC50 [1]: 2.7 nM; IC50 [2]: 8.2 nM; IC50 [3]: 31 nM
2 | C=CC(=O)Nc1cc(Nc2nccc(-c3cn(C)c4cccc(Cl)c34)n2)c(OC)cc1N(C)CCN(C)C [Example 6, N-(2-(N-(2-(N,N-Dimethylamino)ethyl)-N-methylamino)-4-methoxy-5-(4-(4-chloro-1N-methylindol-3-yl)pyrimidin-2-ylamino)phenyl) propenamide] |  |  |  |  |  | IC50 [1]: 7 nM; IC50 [2]: 9.2 nM; IC50 [3]: 44 nM
3 | C=CC(=O)Nc1cc(Nc2nccc(-n3cc(S(N)(=O)=O)c4ccccc43)n2)c(OC)cc1N(C)CCN(C)C [Example 17, N-(2-((2-(Dimethylamino)ethyl)(methyl)amino)-4-methoxy-5-(4-(3-sulfamoyl-1H-indol-1-yl)pyrimidin-2-ylamino)phenyl) acrylamide] | 71.2 | 67.6 | 0.93 | 0.94 | 162 | 
4 | C=CC(=O)Nc1cc(Nc2nccc(-n3cc(CN)c4ccccc43)n2)c(OC)cc1N(C)CCN(C)C [Example 19, N-(5-(4-(3-(Aminomethyl)-1H-indol-1-yl)pyrimidin-2-ylamino)-2-((2-(dimethylamino)ethyl)(methyl)amino)-4-methoxyphenyl) acrylamide] |  |  |  |  |  | IC50 [9]: 12.7 nM; IC50 [10]: 16.7 nM
5 | C=CC(=O)Nc1cc(Nc2nccc(-n3nc(N)c4ccccc43)n2)c(OC)cc1N(C)CCN(C)C [Example 20] | 23.5 | 19.3 | 1.92 | 2.35 |  | IC50 ([6]; 72 h): 1.54 nM; IC50 ([7]; 72 h): 2.12 nM
6 | C=CC(=O)Nc1cc(Nc2nccc(-n3cc(C(=O)NC)c4ccccc43)n2)c(OC)cc1N(C)CCN(C)C [Example 36, N-Methyl 1-(2-((5-acrylamido-4-((2-(dimethylamino)ethyl)(methyl)amino)-2-methoxyphenyl)amino)pyrimidin-4-yl)-1H-indole-3-carboxamide hydrochloride] |  |  |  |  |  | IC50 [9]: 39.5 nM; IC50 [10]: 57.5 nM

Now from value to compound, other results behind:

Row | IC50 [4] [nM] | IC50 [5] [nM] | IC50 ([6]; Homo sapiens, PC-9, 72 h) [nM] | IC50 ([7]; Homo sapiens, NCI-H1975, 72 h) [nM] | IC50 [8] [nM] | SMILES | other results
7 | 3.94 | 4.76 | 0.76 | 0.72 | 121 | C=CC(=O)Nc1cc(Nc2nccc(-c3c[nH]c4c(C(N)=O)cccc34)n2)c(OC)cc1N(C)CCN(C)C [Example 16, 3-(2-(5-Acrylamido-4-((2-(dimethylamino)ethyl)(methyl)amino)-2-methoxyphenylamino)pyrimidin-4-yl)-1H-indole-7-carboxamide] | 
8 | 2.15 | 2.28 | 0.64 | 0.41 | 40 | C=CC(=O)Nc1cc(Nc2nccc(-n3nc(C(N)=O)c4ccccc43)n2)c(OC)cc1N(C)CCN(C)C [Example 18, 1-(2-(5-Acrylamido-4-((2-(dimethylamino)ethyl)(methyl)amino)-2-methoxyphenylamino)pyrimidin-4-yl)-1H-indazole-3-carboxamide] | 
9 | 210 | 206 | 19.2 | 20.4 | 1680 | C=CC(=O)Nc1cc(Nc2nccc(-n3cc(C(=O)O)c4ccccc43)n2)c(OC)cc1N(C)CCN(C)C [Example 30, 1-(2-((5-Acrylamido-4-((2-(dimethylamino)ethyl)(methyl)amino)-2-methoxyphenyl)amino)pyrimidin-4-yl)-1H-indole-3-carboxylic acid] | 
